# Measured values from PMC7583350 (Journal of medicinal chemistry, 2018).
# “Also recorded” adds a separate entry of the source.
# Columns and labels:
# [1] = test system: MOLT-4 cells; experiment: Cell viability of MOLT-4 cells; format: cell-based, human; conditions: MOLT-4, 48 hrs
# [2] = test system: MOLT-4 cells; conditions: cited from earlier work
# [3] = test system: L363 cells; experiment: MTS assay, multiple myeloma cell line L363; format: cell-based, human; conditions: LCL161-sensitive MM cell line, 48 hr, 20 μM
# [4] = test system: H929 cells; experiment: MTS assay, multiple myeloma cell line H929; format: cell-based, human; conditions: LCL161-sensitive MM cell line, 48 hr, 20 μM
# [5] = target: BIR2 domain of XIAP (Homo sapiens, UniProt P98170); experiment: DELFIA assay, BIR2 domain of XIAP; format: binding; conditions: supplementary Table S1
# Chain of BIR2 domain of XIAP (P98170 152-236 limits assumed): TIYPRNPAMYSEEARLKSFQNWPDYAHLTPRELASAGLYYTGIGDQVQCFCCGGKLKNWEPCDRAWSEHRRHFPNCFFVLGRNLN
# [6] = test system: PANC-1 cells; experiment: Co-treatment with gemcitabine, PANC-1 pancreatic cancer cells; format: cell-based, human; conditions: GEM-resistant, 15 μM IAP inhibitor, 24 hrs co-treatment
# [7] = test system: BxPC3 cells; experiment: Co-treatment with gemcitabine, BxPC3 pancreatic cancer cells; format: cell-based, human; conditions: 15 μM IAP inhibitor, 24 hrs co-treatment
# [8] = test system: MIA PaCa-2 cells; experiment: Co-treatment with gemcitabine, MIA PaCa-2 pancreatic cancer cells; format: cell-based, human; conditions: GEM-sensitive, 15 μM IAP inhibitor, 24 hrs co-treatment
Compound,Activity in cell viability assay [1],Sensitivity of MOLT-4 cell line [2],Growth inhibition L363 [3],Growth inhibition H929 [4],Affinity for the BIR2 domain of XIAP [5],"Effect in combination with gemcitabine, PANC-1 [6]","Effect in combination with gemcitabine, BxPC3 [7]","Effect in combination with gemcitabine, MIA PaCa-2 [8]"
CN[C@@H](C)C(=O)N[C@H](C(=O)N1CCC[C@H]1c1nc(C(=O)c2ccc(F)cc2)cs1)C1CCCCC1 [LCL161],not particularly active; also recorded: less potent than both compound 34 and compound 31,insensitive,particularly active,particularly active,only modest affinity,significantly restore growth inhibition by gemcitabine,significantly restore growth inhibition by gemcitabine,–
CN[C@@H](C)C(=O)N[C@@H](Cc1cc(C)c(C(F)(F)F)cc1F)C(=O)N1CCC[C@H]1C(=O)N[C@@H]1CCc2c(F)cccc21 [Compound 31],–,–,–,–,–,significantly restore growth inhibition by gemcitabine; also recorded: significant synergism,significantly restore growth inhibition by gemcitabine; also recorded: significant synergism,modest significant additive effect
